Experimental findings from patent US7829665B2 (priority 2005, dated 2010) are described below.

Like-named read-outs stand apart in the source and are kept apart here. Some results are limits rather than exact numbers.

The target in the test is T1, full-length NS3/NS4A-2 (HCV NS3 protease) (Hepatitis C virus genotype 1a, UniProt P27958).
T1 construct: Recombinant E. coli or Baculovirus full-length NS3 was diluted to 3.33 μM with assay buffer; made in house; host or cells: E. coli or baculovirus (BV) expression system
T1 sequence (P27958 1027-1657): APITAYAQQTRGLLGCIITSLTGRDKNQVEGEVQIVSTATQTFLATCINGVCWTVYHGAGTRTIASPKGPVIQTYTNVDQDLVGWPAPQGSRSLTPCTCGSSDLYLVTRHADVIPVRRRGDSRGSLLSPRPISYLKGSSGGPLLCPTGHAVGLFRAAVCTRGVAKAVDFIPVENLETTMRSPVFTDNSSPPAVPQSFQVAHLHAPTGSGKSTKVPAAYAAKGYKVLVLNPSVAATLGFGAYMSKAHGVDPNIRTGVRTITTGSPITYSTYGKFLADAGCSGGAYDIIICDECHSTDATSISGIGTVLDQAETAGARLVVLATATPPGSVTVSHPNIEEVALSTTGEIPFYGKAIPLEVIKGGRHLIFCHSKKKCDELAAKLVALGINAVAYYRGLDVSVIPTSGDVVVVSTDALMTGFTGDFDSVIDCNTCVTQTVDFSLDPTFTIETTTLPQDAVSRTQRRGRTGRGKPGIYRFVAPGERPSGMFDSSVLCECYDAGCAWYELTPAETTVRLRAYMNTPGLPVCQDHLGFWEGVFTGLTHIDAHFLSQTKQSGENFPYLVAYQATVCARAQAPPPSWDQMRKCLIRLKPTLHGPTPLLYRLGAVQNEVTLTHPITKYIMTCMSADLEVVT
Briefly: NS3-NS4 protease assay / NS3 inhibition assay (RETS1 substrate, fluorescence kinetic read). The format is biochemical. As to the method: NS3 complex formation with NS4A-2.
Recombinant E. coli or Baculovirus full-length NS3 was diluted to 3.33 μM with assay buffer and transferred material to an eppendorf tube and place in water bath in 4° C. refrigerator. The appropriate amount of NS4A-2 to 8.3 mM in assay buffer was added to equal the volume of NS3 in step 2.1.1 (conversion factor—3.8 mg/272 μL assay buffer). The material was transferred to an eppendorf tube and place in water bath in 4° C. refrigerator.
After equilibration to 4° C., equal volumes of NS3 and NS4A-2 solutions were combined in an eppendorf tube, mix gently with a manual pipettor, and incubate mixture for 15 minutes in the 4° C. water bath. Final concentrations in the mixture are 1.67 μM NS3, 4.15 mM NS4A-2 (2485-fold molar excess NS4A-2).
After 15 minutes at 4° C., the NS3/NS4A-2 eppendorf tube was removed and place it in a room temperature water bath for 10 minutes. NS3/NS4A-2 was alliquoted at appropriate volumes and store at −80° C. (E. coli NS3 run at 2 nM in assay, aliquot at 25 μL. BV NS3 run at 3 nM in assay, aliquot at 30 μL).
Sample compounds were dissolved to 10 mM in DMSO then diluted to 2.5 mM (1:4) in DMSO. Typically, compounds were added to an assay plate at 2.5 mM concentration, yielding upon dilution a starting concentration of 50 microM in the assay inhibition curve. Compounds were serial diluted in assay buffer to provide test solutions at lower concentrations.
The E. coli. NS3/NS4A-2 was diluted to 4 nM NS3 (1:417.5 of 1.67 μM stock−18 μL 1.67 μM stock+7497 μL assay buffer). The BV NS3/NS4A-2 was diluted to 6 nM NS3 (1:278.3 of 1.67 μM stock−24 μL 1.67 μM stock+6655 μL assay buffer). Using the manual multichannel pipettor, careful not to introduce bubbles into the plate, add 50 μL assay buffer to wells A01-H01 of a black Costar 96-well polypropylene storage plate.
Using the manual multichannel pipettor, careful not to introduce bubbles into the plate, add 50 μL of diluted NS3/NS4A-2 from step 2.2.6 to wells A02-H12 of plate in step 2.2.7. Using the manual multichannel pipettor, careful not to introduce bubbles into the plate, transfer 25 μL of the wells in drug dilution plate in step 2.2.5 to corresponding wells in assay plate in step 2.2.8. Change tips on multichannel pipettor for each row of compounds transferred. Using the manual multichannel pipettor, careful not to introduce bubbles into the plate, mix the wells from the assay plate in step 2.2.9 by aspirating and dispensing 35 μL of the 75 μL in each well five times. Change tips on multichannel pipettor for each row of wells mixed. Cover plate with a polystyrene plate lid and pre-incubate the plate from step 2.2.10 containing NS3 protease and sample compounds 10 minutes at room temperature. While plate from step 2.2.11 is pre-incubating, dilute RETS1 substrate in a 15 mL polypropylene centrifuge tube. Dilute RETS1 substrate to 8 μM (1:80.75 of 646 μM stock−65 μL 646 μM stock+5184 μL assay buffer).
After the plate in step is done pre-incubating, and using the manual multichannel, add 25 μL of substrate to all wells on the plate. Quickly mix the plate as in step 2.2.10, mixing 65 μL of the 100 μL in the wells.
Read the plate in kinetic mode on the Molecular Devices SpectraMax Gemini XS plate reader. Reader settings: Read time: 30 minutes, Interval: 36 seconds, Reads: 51, Excitation λ: 335 nm, Emission λ: 495 nm, cutoff: 475 nm, Automix: off, Calibrate: once, PMT: high, Reads/well: 6, Vmax pts: 21 or 28/51 depending on length of linearity of reaction
IC50 s are determined using a four parameter curve fit equation, and converted to Ki's using the following Km's: • Full-length E. coli NS3—2.03 μM • Full-length BV NS3—1.74 μM where Ki=IC50/(1+[S]/Km)) • Quantitation by ELISA of the selectable marker protein, Neomycin phosphotransferase II (NPTII) in the HCV Sub-Genomic Replicon, GS4.3

The mark [1] stands for this setting: recombinant E. coli or Baculovirus full-length NS3 with NS4A-2, read-out: NS3-NS4 IC50.

With `CC(C)(C)OC(=O)N[C@H]1CCCCC/C=C\[C@@H]2C[C@@]2(C(=O)NCc2ccccn2)NC(=O)[C@@H]2CCCN2C1=O` [Compound 500], under setting [1], the IC50 was greater than 10 µM.

On to `C[C@H](NC(=O)[C@@]12C[C@H]1/C=C\CCCCC[C@H](NC(=O)OC(C)(C)C)C(=O)N1CCC[C@H]1C(=O)N2)c1ccncc1` [Compound 501], for which, under setting [1], the IC50 is greater than 10 µM.

For the molecule `CC(C)(C)OC(=O)N[C@H]1CCCCC/C=C\[C@@H]2C[C@@]2(C(=O)NCc2ccncc2)NC(=O)[C@@H]2CCCN2C1=O` [Compound 502], under setting [1], the IC50 is greater than 10 µM.

In the case of `CC(C)(C)OC(=O)N[C@H]1CCCCC/C=C\[C@@H]2C[C@@]2(C(=O)NCC(O)(C(F)(F)F)C(F)(F)F)NC(=O)[C@@H]2CCCN2C1=O` [Compound 503], the IC50 under setting [1] is greater than 10 µM.

`CC(C)(C)OC(=O)N[C@H]1CCCCC/C=C\[C@@H]2C[C@@]2(C(=O)NCCN2CCOCC2)NC(=O)[C@@H]2C[C@@H](OC(=O)N3Cc4cccc(F)c4C3)CN2C1=O` [Compound 607]: the IC50 under setting [1] is greater than 10 µM.

In the case of `CN(C)CCNC(=O)[C@@]12C[C@H]1/C=C\CCCCC[C@H](NC(=O)OC(C)(C)C)C(=O)N1C[C@H](OC(=O)N3Cc4cccc(F)c4C3)C[C@H]1C(=O)N2` [Compound 608], the IC50 under setting [1] is greater than 10 µM.

In the case of `CCCNC(=O)[C@@]12C[C@H]1/C=C\CCCCC[C@H](NC1CCC1)C(=O)N1C[C@H](OC(=O)N3Cc4cccc(F)c4C3)C[C@H]1C(=O)N2` [Compound 623], the 50% inhibitory concentration (IC50) under setting [1] was less than 10 µM.

Take `CCOC(=O)[C@@]12C[C@H]1/C=C\CCCCC[C@H](Nc1c(N3CCC3)c(=O)c1=O)C(=O)N1C[C@H](OC(=O)N3Cc4cccc(F)c4C3)C[C@H]1C(=O)N2` [Compound 645]: the IC50 under setting [1] was less than 0.1 µM.

As for `CNC(=O)NC(=O)[C@@]12C[C@H]1/C=C\CCCCC[C@H](NC(=O)OC(C)(C)C)C(=O)N1C[C@H](OC(=O)N3Cc4ccccc4C3)C[C@H]1C(=O)N2` [Compound 703], the IC50 under setting [1] was less than 1 µM.

As for `CC(C)(C)OC(=O)N[C@H]1CCCCC/C=C\[C@@H]2C[C@@]2(C(=O)NC(=O)Nc2ccccc2)NC(=O)[C@@H]2C[C@@H](OC(=O)N3Cc4ccccc4C3)CN2C1=O` [Compound 704], under setting [1], the IC50 is less than 10 µM.

For the molecule `CC(C)(C)OC(=O)N[C@H]1CCCCC/C=C\[C@@H]2C[C@@]2(C(=O)NS(=O)(=O)OCCc2ccccc2)NC(=O)[C@@H]2CCCN2C1=O` [Compound 801], the IC50 under setting [1] is less than 10 µM.

As for `O=C(N[C@H]1CCC(F)(F)CC/C=C\[C@@H]2C[C@@]2(C(=O)NS(=O)(=O)C2CC2)NC(=O)[C@@H]2C[C@@H](OC(=O)N3Cc4cccc(F)c4C3)CN2C1=O)OC1CCCC1` [Compound 1005], under setting [1], the IC50 was less than 0.1 µM.

Regarding `CC(C)(C)OC(=O)N[C@H]1CCC(O)CC/C=C\[C@@H]2C[C@@]2(C(=O)NS(=O)(=O)C2CC2)NC(=O)[C@@H]2C[C@@H](OC(=O)N3Cc4cccc(F)c4C3)CN2C1=O` (stereo partly drawn) [Compound 1018], the IC50 is less than 0.1 µM.

Turning to `CC(C)(C)OC(=O)N[C@H]1COCCC/C=C\[C@@H]2C[C@@]2(C(=O)NS(=O)(=O)C2CC2)NC(=O)[C@@H]2C[C@@H](OC(=O)N3Cc4cccc(Cl)c4C3)CN2C1=O` [Compound 1025], the IC50 was less than 0.1 µM.

With `CC(C)(C)OC(=O)N[C@H]1CCN(S(=O)(=O)c2ccccc2[N+](=O)[O-])CC/C=C\[C@@H]2C[C@@]2(C(=O)NS(=O)(=O)C2CC2)NC(=O)[C@@H]2C[C@@H](OC(=O)N3Cc4cccc(F)c4C3)CN2C1=O` [Compound 1030, (2R,6S,13aS,14aR,16aS,Z)-6-(tert-butoxycarbonylamino)-14a-(cyclopropylsulfonylcarbamoyl)-9-(2-nitrophenylsulfonyl)-5,16-dioxo-1,2,3,5,6,7,8,9,10,11,13a,14,14a,15,16,16a-hexadecahydrocyclopropa(n)pyrrolo[2,1-c][1,4,9]triazacyclopentadecine-2-yl 4-fluoroisoindoline-2-carboxylate], the IC50 under setting [1] is less than 0.1 µM.

Consider `CC(C)(C)OC(=O)N[C@H]1CCCCC/C=C\[C@@H]2C[C@@]2(C(=O)O)NC(=O)C2Cc3ccccc3CN2C1=O` (stereo partly drawn) [Compound 2001, (1aS,9S,19aR,Z)-9-(tert-Butoxycarbonyl)-10,18-dioxo-1a,4,5,6,7,8,9,10,12,17,17a,18,19,19a-tetradecahydro-1H-11,14-diaza-bicyclo[13.1.0]hexadeca-1(15), 2-dieno[11,12-b]isoquinoline-19a-carboxylic acid], for which the IC50 under setting [1] is greater than 10 µM.

With `O=C(N[C@H]1CCCCC/C=C\[C@@H]2C[C@@]2(C(=O)O)NC(=O)C2Cc3cc(Oc4cccc(Cl)c4)ccc3CN2C1=O)OC1CCCC1` (stereo partly drawn) [Compound 2002, (Z)-15-(3-chlorophenoxy)-9-(cyclopentyloxycarbonyl)-10,18-dioxo-1a,4,5,6,7,8,9,10,12,17,17a,18,19,19a-tetradecahydro-1H-11,14-diaza-bicyclo[13.1.0]hexadeca-1(16), 2-dieno[11,12-b]isoquinoline-19a-carboxylic acid], the IC50 under setting [1] was less than 10 µM.

In the case of `CS(=O)(=O)NC(=O)[C@@]12C[C@H]1/C=C\CCCCC[C@H](NC(=O)OC1CCCC1)C(=O)N1Cc3ccc(Oc4cccc(Cl)c4)cc3CC1C(=O)N2` (stereo partly drawn) [Compound 2003, Cyclopentyl (1aS,9S,19aR,Z)-15-(3-chlorophenoxy)-19a-(methylsulfonylcarbamoyl)-10,18-dioxo-1a,4,5,6,7,8,9,10,12,17,17a,18,19,19a-tetradecahydro-1H-11,14-diaza-bicyclo[13.1.0]hexadeca-1(15), 2-dieno[11,12-b]isoquinolin-9-ylcarbamate], the IC50 under setting [1] is less than 10 µM.

As for `O=C(N[C@H]1CCCCC/C=C\[C@@H]2C[C@@]2(C(=O)NS(=O)(=O)c2ccccc2)NC(=O)C2Cc3cc(Oc4cccc(Cl)c4)ccc3CN2C1=O)OC1CCCC1` (stereo partly drawn) [Compound 2004, Cyclopentyl (1aS,9S,19aR,Z)-15-(3-chlorophenoxy)-10,18-dioxo-19a-(phenylsulfonylcarbamoyl)-1a,4,5,6,7,8,9,10,12,17,17a,18,19,19a-tetradecahydro-1H-11,14-diaza-bicyclo[13.1.0]hexadeca-1(15), 2-dieno[11,12-b]isoquinolin-9-ylcarbamate], under setting [1], the IC50 was less than 1 µM.

Turning to `CC(C)(C)OC(=O)N[C@H]1CCCCC/C=C\[C@@H]2C[C@@]2(C(=O)NS(=O)(=O)C2CC2)NC(=O)C2Cc3ccccc3CN2C1=O` (stereo partly drawn) [Compound 2009, tert-Butyl (1aS,9S,19aR,Z)-19a-(cyclopropylsulfonylcarbamoyl)-10,18-dioxo-1a,4,5,6,7,8,9,10,12,17,17a,18,19,19a-tetradecahydro-1H-11,14-diaza-bicyclo[13.1.0]hexadeca-1(15),2-dieno[11,12-b]isoquinolin-9-ylcarbamate], the IC50 under setting [1] was less than 10 µM.

Consider `O=C(N[C@H]1CCCCCCC[C@@H]2C[C@@]2(C(=O)NS(=O)(=O)c2ccccc2)NC(=O)C2Cc3cc(Oc4cccc(Cl)c4)ccc3CN2C1=O)OC1CCCC1` (stereo partly drawn) [Compound 2010, Cyclopentyl (1aR,9S,19aR)-15-(3-chlorophenoxy)-10,18-dioxo-19a-(phenylsulfonylcarbamoyl)-1a,2,3,4,5,6,7,8,9,10,12,17,17a,18,19,19a-hexadecahydro-1H-2,5-diaza-bicyclo[13.1.0]hexadec-1(15)-eno[5,4-b]isoquinolin-9-ylcarbamate], for which the IC50 under setting [1] was less than 10 µM.
